Assay [1] deals with T1, β2-adrenergic receptor (Homo sapiens, UniProt P07550).
T1 construct: expressed in transfected cells; host or cells: CHO
Kind of assay: Functional cellular cAMP (HTRF) assay, CHO cells expressing β2-ARs. The following applies: relative to procaterol. The assay is classed as cell-based. The protocol:
(§1) The potency and maximal effect of vibegron and mirabegron for β3-adrenergic receptors and the selectivity for each […] receptor were determined. Functional cellular assays for vibegron and mirabegron activity were performed using Chinese hamster ovary (CHO) cells expressing β1- or β2-ARs and human embryonic kidney (HEK) 293 cells expressing β3-ARs. Cells were incubated with vibegron, mirabegron, or the appropriate control (isoproterenol for β1 and β3, procaterol for β2). Responses were quantified using homogeneous time-resolved fluorescence of cyclic adenosine monophosphate. Half-maximal effective concentration (EC50) and maximum response (Emax) values were determined by nonlinear least-squares regression analysis.

Assay [2] deals with subjects with NYHA class II-III HF and LVEF <40%. The conditions noted are these: BEAT-HF trial; cited from earlier work.
Assay [3] has as its target T2, β1-adrenergic receptor (Homo sapiens, UniProt P08588).
T2 construct: expressed in transfected cells; host or cells: CHO
Kind of assay: Functional cellular cAMP (HTRF) assay, CHO cells expressing β1-ARs. The following applies: relative to isoproterenol. The assay is classed as cell-based. The protocol:
as §1

Assay [4] deals with T3, β3-adrenergic receptor (Homo sapiens, UniProt P13945).
T3 construct: expressed in transfected cells; host or cells: HEK293
Kind of assay: Functional cellular cAMP (HTRF) assay, HEK293 cells expressing β3-ARs. The assay is classed as cell-based. How it is done: as §1

For assay [5], the system named is elderly patients with heart failure, including a subgroup with HFpEF. The following applies: cited from earlier work.

T3 sequence (P13945 whole entry): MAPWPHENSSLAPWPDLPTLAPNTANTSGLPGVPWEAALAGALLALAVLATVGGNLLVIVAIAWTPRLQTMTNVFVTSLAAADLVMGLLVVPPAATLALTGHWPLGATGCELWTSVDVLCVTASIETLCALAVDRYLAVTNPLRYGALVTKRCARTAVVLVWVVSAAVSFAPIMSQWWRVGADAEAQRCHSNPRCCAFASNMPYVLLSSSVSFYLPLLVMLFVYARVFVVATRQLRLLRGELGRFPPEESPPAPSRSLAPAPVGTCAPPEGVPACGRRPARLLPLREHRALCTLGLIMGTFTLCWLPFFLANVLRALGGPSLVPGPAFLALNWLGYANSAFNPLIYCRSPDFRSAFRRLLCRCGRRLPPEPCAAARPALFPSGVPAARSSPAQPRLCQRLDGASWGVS
T1 sequence (P07550 whole entry): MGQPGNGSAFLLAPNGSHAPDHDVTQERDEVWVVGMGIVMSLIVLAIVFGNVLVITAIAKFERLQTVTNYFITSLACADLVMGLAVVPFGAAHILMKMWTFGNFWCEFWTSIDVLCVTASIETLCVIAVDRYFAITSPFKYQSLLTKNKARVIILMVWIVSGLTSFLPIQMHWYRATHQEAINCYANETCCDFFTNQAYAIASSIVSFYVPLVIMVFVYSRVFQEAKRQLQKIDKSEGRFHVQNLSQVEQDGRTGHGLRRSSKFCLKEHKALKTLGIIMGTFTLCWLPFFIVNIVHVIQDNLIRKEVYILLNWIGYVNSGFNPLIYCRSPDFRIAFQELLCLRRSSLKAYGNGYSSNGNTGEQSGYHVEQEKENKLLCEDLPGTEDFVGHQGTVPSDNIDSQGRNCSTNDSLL
T2 sequence (P08588 whole entry): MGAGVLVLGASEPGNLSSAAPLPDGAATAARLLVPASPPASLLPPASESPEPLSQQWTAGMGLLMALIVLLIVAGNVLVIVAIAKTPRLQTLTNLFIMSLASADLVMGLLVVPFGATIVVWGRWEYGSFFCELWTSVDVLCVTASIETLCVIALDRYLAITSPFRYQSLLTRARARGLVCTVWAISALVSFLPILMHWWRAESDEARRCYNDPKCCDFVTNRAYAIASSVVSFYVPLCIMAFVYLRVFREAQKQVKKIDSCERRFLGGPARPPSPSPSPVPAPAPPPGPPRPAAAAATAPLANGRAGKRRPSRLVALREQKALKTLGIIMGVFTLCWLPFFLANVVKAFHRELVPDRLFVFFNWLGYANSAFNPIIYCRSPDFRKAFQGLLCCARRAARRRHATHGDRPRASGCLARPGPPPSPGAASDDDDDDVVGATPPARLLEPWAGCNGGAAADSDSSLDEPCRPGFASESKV

Take `Nc1nc(CC(=O)Nc2ccc(CCNC[C@H](O)c3ccccc3)cc2)cs1` [Mirabegron]: in assay [1], the “β2-adrenergic activity (% Activity)” value was determined as 15%. Also, in assay [2], the “Primary endpoint (change in LVEF)” value was “failed to meet the primary endpoint”. Also, the “β1-adrenergic activity (% Activity)” value in assay [3] came to 3%. Further, in assay [4] (10 μM, HEK293 cells), the “β3-adrenergic activity relative to isoproterenol (% Activity)” value was 88%. The Emax in assay [4] (HEK293, estimated by nonlinear least-squares regression, read-out: Emax (maximum response) at the β3-AR) was 80.4%. Further, the EC50 in assay [4] (HEK293 cells expressing β3-ARs, cAMP, read-out: Mean (SEM) EC50 at the β3-AR) came out at 10 nM.
Take `OC(CNCC(O)C1CCc2cc(F)ccc2O1)C1CCc2cc(F)ccc2O1` (stereo not shown) [nebivolol]: the “Treatment of heart failure” value in assay [5] is listed as “some success in treating heart failure in elderly patients”.

(Values after patent US20260224577A1, “METHODS OF TREATING HEART FAILURE WITH VIBEGRON” (SUMITOMO PHARMA CO., LTD., priority 2021, published 2026).)
